Measurements published in US20250057910A1, “Application of Polypeptide in Preparation of Product for Preventing or Treating Skin Injury Diseases” (Sichuan Gooddoctor Panxi Pharmaceutical Co., Ltd., priority 2021, published 2025).
Ends that are not written are not given here.

Tests used:
[1] = system: HaCaT cells (human immortalized keratinocytes); assay: Proliferation of HaCaT cells (CCK8); assay type: cell-based; settings: 72 h, 1640 medium with 1% serum, FIG. 1
Experimental: Experimental method: Human immortalized keratinocytes (HaCAT cells) were adjusted to a concentration of 1.0*10^5 to 5.0*10^5/mL for passaging, and cultured at 37° C. and 5% CO2 for 24-36 hours for the biological activity detection. The cells were digested with 0.25% pancreatin for 5 min, a 1640 whole blood medium with more than 1 times the volume of pancreatin was added to stop digestion, a cell suspension was collected and centrifuged at 1000 RPM for 3 min, the supernatant was discarded, 2 mL of 1640 whole blood medium was added to resuspend the cells, 20 uL cell suspension was taken, stained with AOPI, and then the concentration of cells in the suspension was detected with a cell counter, the cell suspension was formulated with 1640 medium with 10% serum to a concentration of 5*10^4/mL and seeded into 96-well cell culture plates with 100 μL per well, i.e. 5000 cells/well, and cultured overnight at 37° C. and 5% CO2.
After 24 hours, the original culture medium was discarded and 100 μL of each of different concentrations of polypeptide solutions formulated with 1640 culture medium with 1% serum was added. […] The mixtures were cultured at 37° C. and 5% CO2 for 72 h, and the proliferation of the HaCaT cell line was detected by the CCK8 kit.

[2] = system: Transgenic zebrafish with vascular green fluorescence; assay: Angiogenesis in zebrafish with simvastatin-induced microvessel deficiency; assay type: in vivo; settings: intravenous injection 12.5, 25.0 and 50.0 mg/mL, 10 nL, 2 days, vs model control
Experimental: Experimental animals: Transgenic zebrafish with vascular green fluorescence, raised in water for culturing fish at 28° C. (water quality: 200 mg of instant dissolving sea salt being added to every 1 L of water made by reverse osmosis, with a conductivity of 450-550 μS/cm, a pH of 6.5-8.5 and a hardness of 50-100 mg/L CaCO3), at the age of 1 day post fertilization (1 dpf). The animals were provided by the fish breeding center of Hangzhou Hunter Biotechnology Co., Ltd. with the experimental animal use license number of SYXK (Zhejiang) 2012-0171, and the breeding management complied with the requirements of international AAALAC certification (certification number: 001458).
Experimental method: 1 dpf transgenic zebrafish with vascular green fluorescence were randomly selected and placed in a 6-well plate, with 30 fish per well (per experimental group). […] Treatment was performed at 28° C. for 2 days, 10 zebrafish were randomly selected in each experimental group and placed under a fluorescence microscope to take photos, the data were analyzed and collected using NIS-Elements D 3.20 advanced image processing software, the subintestinal vascular area and the number of subintestinal vascular branches were analyzed, and the statistical analysis results of these indexes were used to evaluate the efficacy of the samples of promoting angiogenesis.

[3] = system: STZ-induced diabetic rats; assay: Healing of skin ulcer in streptozotocin (STZ)-induced diabetic rats; assay type: in vivo, rat; settings: for Wound healing rates of diabetic rats: Mean ± SD, n = 15
Experimental: Experimental animals: After SPF grade male healthy SD rats (weighing 180-200 g) were fed with high-fat and high-sugar diet for 2 weeks and fasted for 6 hours, each rat was rapidly injected with an STZ solution (50 mg kg^−1) intraperitoneally at one time, and 48 hours later, the random blood glucose values were >16.7 mmol/L twice, indicating the successful establishment of type II diabetic rat model. Experimental animals were purchased from Beijing Vital River Laboratory Animal Technology Co., Ltd., with the experimental animal quality certification number of SCXK (Beijing) 2017-0033, and the experimental animal use license number of SCXK (Beijing) 2017-0033.
Experimental method: 90 diabetic rats were selected and randomly divided into 6 groups with 15 rats in each group, namely, model control group (normal saline), high-dose polypeptide group (30 μg/cm^2), medium-dose polypeptide group (10 μg/cm^2), and low-dose polypeptide group (3 μg/cm^2), GeneTime group (40 IU/cm^2, recombinant human epidermal growth factor topical solution, from Shenzhen Watsin Genetech Ltd.), and Kangfuxin Ye group (36 μL/cm^2, Kangfuxinye, from SICHUAN GOODDOCTOR PANXI PHARMACEUTICAL CO., LTD.). After each experimental rat was anesthetized by intraperitoneal injection of 2% pentobarbital sodium (0.2 mL/100 g), a 2 cm^2 full-layer skin defect wound was prepared at each of both sides of the back spine, and a rubber ring with a diameter of 2.3 cm was stitched at the outer edge of the wound. After hemostasis of the wound, local drug therapy at the wound was carried out by group. Except that the Kangfuxin Ye group was administered 2 times/day, other groups were administered once a day, with a dosed volume of 72 μL/wound each time, for 14 consecutive days. After the administration, the wound was covered with a sterile vaseline gauze (5 cm*5 cm), and bandaged with multi-layer sterile gauzes. After the wound surgery, the wound was photographed, and the wound area was recorded as the baseline value (the wound was recorded as Day0). During the administration period, the wound areas were photographed and measured 3 times a week, and the granulation tissue growth and healing of wound in each group were observed every day.

**Q.** For PAAEPVPL [polypeptide], which “Proliferation-promoting effect on the HaCaT cell line” value [1] is on record?
**A.** significant effect of promoting proliferation

**Q.** What about the “Subintestinal vascular area (area of regenerated blood vessels)” value ([2]; FIG. 6) of the same sequence?
**A.** significantly promote the increase of the subintestinal vascular area

**Q.** And the “Number of subintestinal vascular branches” value ([2]; FIG. 7)?
**A.** the increase of the number of subintestinal vascular branches

**Q.** And the “Formation rate of new granulation tissues” value ([3]; 3rd day after injury, low-, medium- and high-dose (3, 10, 30 μg/cm^2), vs model control, FIG. 8)?
**A.** promoted the growth rate of new granulation tissue compared to the model control group with significant differences

**Q.** And the “Wound healing rates of diabetic rats” value ([3]; Day 0 (baseline), high-dose 30 μg/cm^2, topical once a day)?
**A.** 0.00 ± 0.00%

**Q.** What about the “Wound healing rates of diabetic rats” value ([3]; Day 0 (baseline), low-dose 3 μg/cm^2, topical once a day) of the same sequence?
**A.** 0.00 ± 0.00%

**Q.** And the “Wound healing rates of diabetic rats” value ([3]; Day 0 (baseline), medium-dose 10 μg/cm^2, topical once a day)?
**A.** 0.00 ± 0.00%

**Q.** What about the “Wound healing rates of diabetic rats” value ([3]; Day 3, high-dose 30 μg/cm^2, topical once a day) of the same sequence?
**A.** 6.82 ± 19.81%

**Q.** What about the “Wound healing rates of diabetic rats” value ([3]; Day 3, low-dose 3 μg/cm^2, topical once a day) of the same sequence?
**A.** 3.05 ± 8.10%

**Q.** What about the “Wound healing rates of diabetic rats” value ([3]; Day 3, medium-dose 10 μg/cm^2, topical once a day) of the same sequence?
**A.** 5.04 ± 9.31%

**Q.** What about the “Wound healing rates of diabetic rats” value ([3]; Day 7, high-dose 30 μg/cm^2, topical once a day) of the same sequence?
**A.** 62.62 ± 12.24%

**Q.** And the “Wound healing rates of diabetic rats” value ([3]; Day 7, low-dose 3 μg/cm^2, topical once a day)?
**A.** 54.67 ± 18.10%

**Q.** And the “Wound healing rates of diabetic rats” value ([3]; Day 7, medium-dose 10 μg/cm^2, topical once a day)?
**A.** 57.57 ± 10.49%

**Q.** And the “Wound healing rates of diabetic rats” value ([3]; Day 10, high-dose 30 μg/cm^2, topical once a day)?
**A.** 88.49 ± 5.17 %

**Q.** And the “Wound healing rates of diabetic rats” value ([3]; Day 10, low-dose 3 μg/cm^2, topical once a day)?
**A.** 84.05 ± 10.21%

**Q.** And the “Wound healing rates of diabetic rats” value ([3]; Day 10, medium-dose 10 μg/cm^2, topical once a day)?
**A.** 84.26 ± 9.10%

**Q.** What about the “Wound healing rates of diabetic rats” value ([3]; Day 12, high-dose 30 μg/cm^2, topical once a day) of the same sequence?
**A.** 98.39 ± 2.39%

**Q.** What about the “Wound healing rates of diabetic rats” value ([3]; Day 12, low-dose 3 μg/cm^2, topical once a day) of the same sequence?
**A.** 95.92 ± 5.82%

**Q.** And the “Wound healing rates of diabetic rats” value ([3]; Day 12, medium-dose 10 μg/cm^2, topical once a day)?
**A.** 97.77 ± 3.71%

**Q.** And the “Wound healing rates of diabetic rats” value ([3]; Day 14, high-dose 30 μg/cm^2, topical once a day)?
**A.** 99.85 ± 0.77%

**Q.** What about the “Wound healing rates of diabetic rats” value ([3]; Day 14, low-dose 3 μg/cm^2, topical once a day) of the same sequence?
**A.** 99.46 ± 1.46%

**Q.** What about the “Wound healing rates of diabetic rats” value ([3]; Day 14, medium-dose 10 μg/cm^2, topical once a day) of the same sequence?
**A.** 99.85 ± 0.84%

**Q.** And the “Wound healing in diabetic rats (statement in words)” value ([3]; high-dose 30 μg/cm^2, vs model control, Day 10)?
**A.** significant healing promoting effect

**Q.** And the “Wound healing in diabetic rats (statement in words)” value ([3]; low and medium doses (3 and 10 μg/cm^2), Day 10, vs model control)?
**A.** tendency to promote the wound healing
